Data set [1] in a line: Interaction of S100p1-G and metabolite: streptavidin pull-down from BV2 cells and LC-MS. The format is cell-based, mouse. Here is the method: Interaction of S100p1-G and metabolite. Microglial BV2 cells (2×10^6) were transfected with biotinylated oligo S100p1-G or mutant using Lipofectamin RNAiMAX Reagent (Thermo Fisher) according to the manufacturer's instructions overnight at 37° C. […] of aged mouse fecal supernatant (from one-gram feces) was added into the cell growth medium. After six hours, the cells were collected in RIPA lysis buffer. […] of cell lysate was incubated with […] of DYNABEADS® Streptavidin beads (Thermo Fisher) at room temperature for 1 h. The bio-oligo complex was eluted with biotin (4 mg/ml)) in 25 mM Tris-HCL containing 0.3 M NaCl (PH 8.5) at 95° C. for 5 minutes. Metabolite analysis was performed with LC-MS.

The subject of another data set is microglia. The data set can be described thus: S100A8 and cleaved caspase-3 in brain microglia of treated mice (qPCR, western blot). Format: in vivo, mouse. How it is done:
Isolation of microglia, neuron, astrocytes, and oligodendrocytes from the brain. Mice were anaesthetized with a mixture of ketamine (16%) and xylazine (3%) by intraperitoneal injection and then sacrificed under basal conditions by transcardial perfusion with perfusion buffer (Ca^2+/Mg^2+ free HBSS containing 0.5 mM EGTA, 10 mM HEPES and 4.2 mM NaHCO3; pH 7.2). The perfused brain was removed and gently mechanically disaggregated with tweezers in dissociation buffer (HBSS containing 10 mM HEPES and 4.2 mM NaHCO3 supplemented with Type I collagenase (0.05%), Dispase II (25 mg/ml), DNase I (2.5 mg/ml), trypsin inhibitor ([…]); pH 7.5) followed by incubation at 37° C. for 1 hour. The tissue homogenate was centrifuged at 1,350×g for 5 minutes at 4° C. […]
Quantitative Real-Time PCR (qPCR) analysis of mRNA expression. […] For analysis of gene mRNA expression, […] of total RNA was reverse transcribed by SuperScript III reverse transcriptase (Invitrogen) and quantitation was performed using primers (Eurofins) with SSOADVANCED™ Universal SYBR Green Supermix (BioRad); GAPDH was used for normalization. […] Analysis and fold-change were determined using the comparative threshold cycle (Ct) method. […] Setting the expression value of GAPDH to 1.0, the relative expression values were calculated as […]. The change in mRNA expression was calculated as fold-change. […]
(Real-time PCR tracks product formation cycle by cycle.)

Data set [2] can be described thus: HPLC analysis of IAA and CA in serum and cerebrospinal fluid (CSF) of mice. Format: in vivo, mouse.
Data set [3] in a line: Morris water maze (MWM) test. The format is in vivo, mouse. How it is done:
Morris water maze (MWM) test. Mice were trained in a 122 cm diameter, 50 cm height open-field water maze with non-reflective interior surfaces. The pool water was filled with water maintained at 25±1° C. and mixed with non-toxic white tempera paint. Distinctive and extra-maze cues were marked on the wall at specific locations and were visible to the mice in the maze. Mice were removed from cages, placed into the water from quasi-random start points and allowed a maximum of 60 seconds to probe the escape platform. The inter interval of each trail remained for 15 seconds. For four consecutive days, four trials (training) were recorded each day with a final test on day 5 (FIG. 4A). Performance was evaluated by the mean escape latencies base on every training trial (Vorhees and Williams, 2006).

[4] abbreviates: IAA to young mice, phage to aged mice, oral gavage two months.

With `CC(C)CCN` [IAA, isoamylamine], the “metabolite within the Bio-S100p1-G complex (LC-MS)” value in data set [1] (cell lysates) is on record as “only IAA interacts with S100p1-G”. Also, the “S100A8 and cleaved caspase-3 in the microglia” value with microglia (all five major regions of the brain, IAA oral gavage) was “induced”. Moreover, the “pass through the blood-brain barrier (BBB)” value in data set [2] (aged mice, serum and CSF, gut-derived metabolite) is “higher amounts than CA”. Also, the “IAA level in the serum (HPLC)” value in data set [2] (young mice gavage-given IAA, aged mice gavage-given phage^TSD-27) was “increased”. In data set [3] (IAA (0.5 g/kg) to young mice, phage^TSD-27 (1×10^9 pfu/mouse) to aged mice, oral gavage every other day, two months), the “swim speeds in MWM” value is on record as “reduced”. In data set [3] (setting [4]), the “latency time to reach the platform in MWM” value was “induced”; the “memory and learning (normalized test path length, MWM)” value was “induced the memory and learning loss”.

For “S100p1-G: CTGTGGGCAG CTGGCCAAGC (SEQ ID NO: 8), S100A8 promoter −57 . . . −38 (DNA CTGTGGGCAGCTGGCCAAGC; chemistry not given here)”, the “IAA recruited to the oligo complex (LC-MS after pull-down)” value in data set [1] (microglial cells, gut fecal supernatant, 6 h, biotinylated oligo) is “recruited”. In addition, the “expression of S100A8 and cleaved caspase-3 in microglia cells (qPCR, western blot)” value in the data set on microglia (young mice, gavage every other day for 2 months) was “prevented”. The “IAA in CSF (HPLC)” value in data set [2] (aged mice, intravenous oligo, twice a week for 2 months) is recorded as “decline”. The “memory and spatial learning (MWM)” value in data set [3] (aged mice, intravenous, twice a week for 2 months) is on record as “recovered”.

The record behind these values is patent publication US20250136997A1, “COMPOSITIONS FOR SEQUESTERING ISOAMYL AMINE AND METHODS OF USE THEREFOR” (University of Louisville Research Foundation, Inc., priority 2023, published 2025).
